The source of these data is patent US20240246913A1, “2-CARBOXYL-INDOLE INHIBITORS OF METALLO-BETA-LACTAMASES” (Oxford University Innovation Limited, priority 2021, published 2024).

Series [1] can be described thus: Metabolic stability in mouse hepatocytes. In kind it is in vitro ADME. Conditions: cryopreserved mouse hepatocytes, 1 μM compound, 37° C., up to 90 min, read-out: Metabolic stability in hepatocytes, in vitro t1/2, Mouse. The protocol: (§1) Metabolic stability assays were performed in cryopreserved human and mouse hepatocytes. The hepatocytes were thawed and added to “Thawing media”, and centrifuged to pellet the hepatocytes. The cell pellet was taken up in Williams medium E (Invitrogen A1217601), the number of cells was calculated and adjusted to 1.0×10^6 cells/mi. The incubation was carried out on a heater-shaker at […], in a 24-well Picoplate (round bottom, PerkinElmer), using an incubation volume of […]. Thus, to obtain a final compound concentration of 1 μM, 0.7 μl of the 1 mM compound stock solution was pipetted to the wells of the plate. Reaction was initiated by adding 700 μl of cell suspension. Samples were incubated at 37° C. for […] and a zero sample was taken, i.e. 100 μl sample was removed to a 96-well plate and the reaction was quenched by adding 100 μl of 100% MeCN containing 50 nM Warfarin as an internal control. Consecutive samples were taken at time-points 5 min, 15 min, 30 min, 60 min, and 90 min. After finishing the experiment, samples were centrifuged at 3000 rpm for 15 min and before analysis by LC-MS/MS (Waters Corp, Milford, MA, USA).

The target of series [2] is IMP-1 (Serratia marcescens, UniProt P52699). Description: MBL inhibition, FC-5 fluorescence assay, IMP-1. To be noted: FC-5 cephalosporin substrate, fluorescence; ranges of obtained pIC50; read-out: pIC50 IMP-1 (converted). The class given is biochemical. Put shortly: (§2)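 FC-5 turnover; fluorescence ex 380 nm/em 460 nm; initial rates; normalized dose-response, variable-slope fit; 4 replicates per concentration point.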

For series [3], the target named is VIM-2 (Escherichia coli, UniProt Q5U7L7). Description: MBL inhibition, FC-5 fluorescence assay, VIM-2. The class given is biochemical. To be noted: FC-5 cephalosporin substrate, ranges of obtained pIC50, read-out: pIC50 VIM-2 (converted). Put shortly:
as §2

Series [4] concerns the target NDM-1 (Klebsiella pneumoniae, UniProt C7C422). Description: MBL inhibition, FC-5 fluorescence assay, NDM-1. In kind it is biochemical. Conditions: FC-5 cephalosporin substrate, fluorescence; ranges of obtained pIC50; read-out: pIC50 NDM-1 (converted). The gist of the method:
as §2

Series [5] deals with VIM-1 (Pseudomonas aeruginosa, UniProt A0A0F7KYQ8). The experiment in a line: MBL inhibition, FC-5 fluorescence assay, VIM-1. In kind it is biochemical. Conditions: FC-5 cephalosporin substrate, ranges of obtained pIC50, read-out: pIC50 VIM-1 (converted). The gist of the method:
as §2

Series [6] can be described thus: Plasma protein binding, equilibrium dialysis, mouse plasma. The class given is in vitro ADME. Conditions: pH 7.4, equilibrium dialysis (RED) 4 hours at 37° C., read-out: Plasma protein binding, fu, Mouse. How it is done:
The fraction of unbound compound (fu) in plasma from human or other animal species was determined by equilibrium dialysis at 37° C. for 4 hours using the Rapid Equilibrium Dialysis (RED) device (ThermoFisher Scientific). The test compound at a concentration of 10 μM was added to plasma and dialyzed against isotonic phosphate buffer (67 mM, pH 7.4) over 4 hours at 37° C. After dialysis, compound concentrations in buffer and plasma were quantified by LC-MS/MS. In parallel the stability of the compound in plasma was determined by incubating drug-spiked plasma (10 μM) at 37° C. for 4 hours, meanwhile the control plasma sample was kept in the freezer. The concentration of the compound in both samples was quantified by LC-MS/MS (Waters Corp, Milford, MA, USA).
In general terms: Equilibrium dialysis compares concentrations on both sides of a semipermeable membrane.

A short description of series [7]: Metabolic stability in human hepatocytes. In kind it is in vitro ADME. Conditions: cryopreserved human hepatocytes, 1 μM compound, 37° C., up to 90 min, read-out: Metabolic stability in hepatocytes, in vitro t1/2, Human. The protocol:
as §1

A short description of series [8]: Plasma protein binding, equilibrium dialysis, human plasma. The class given is in vitro ADME. To be noted: pH 7.4, equilibrium dialysis (RED) 4 hours at 37° C., read-out: Plasma protein binding, fu, Human. Put shortly:
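Compound at 10 μM in plasma dialysed against 67 mM phosphate buffer pH 7.4 for 4 h at 37° C. in RED device; unbound fraction from buffer and plasma levels by LC-MS/MS. Plasma stability checked in parallel over 4 h at 37° C. versus frozen control.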

For series [9], the system named is Acinetobacter baumannii NDM-1. Description: Antibiotic susceptibility testing (MIC), AB NDM-1. The class given is cell-based. Conditions: agar or broth dilution (CLSI/EUCAST). The protocol: (§3) Antibiotic susceptibility testing was performed using the agar or broth dilution method, in line with the Clinical and Laboratory Standards Institute (CLSI) and European Committee on Antimicrobial Susceptibility Testing (EUCAST) requirements.
A general note: In broth dilution the organism is exposed to a series of concentrations in liquid medium.

The test system of series [10] is Escherichia coli NDM-1. The experiment in a line: Antibiotic susceptibility testing (MIC), EC NDM-1. To be noted: agar or broth dilution (CLSI/EUCAST). The class given is cell-based. The protocol:
as §3

Series [11] deals with Escherichia coli NDM-7. Description: Antibiotic susceptibility testing (MIC), EC NDM-7. The class given is cell-based. To be noted: agar or broth dilution (CLSI/EUCAST). How it is done: as §3

Bounds are passed on as bounds.

IMP-1, sequence (P52699 19-246, looked up, species assumed): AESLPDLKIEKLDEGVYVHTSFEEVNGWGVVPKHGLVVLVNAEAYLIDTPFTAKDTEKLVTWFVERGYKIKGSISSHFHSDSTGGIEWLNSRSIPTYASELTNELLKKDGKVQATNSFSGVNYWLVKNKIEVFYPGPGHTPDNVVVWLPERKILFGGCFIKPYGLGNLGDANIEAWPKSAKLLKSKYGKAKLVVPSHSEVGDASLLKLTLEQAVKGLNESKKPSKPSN
NDM-1, sequence (C7C422 29-270, looked up, species assumed): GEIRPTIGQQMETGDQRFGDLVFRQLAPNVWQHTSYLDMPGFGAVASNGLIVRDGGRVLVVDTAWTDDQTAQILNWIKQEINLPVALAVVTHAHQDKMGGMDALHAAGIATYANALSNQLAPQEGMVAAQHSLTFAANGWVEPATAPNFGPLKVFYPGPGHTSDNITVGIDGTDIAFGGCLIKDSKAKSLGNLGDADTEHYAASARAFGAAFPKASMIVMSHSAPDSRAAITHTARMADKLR

For `CC(NC(=O)[C@H]1CC[C@H](CN)CC1)c1cccc2c(-c3ccc(CS(C)(=O)=O)c(F)c3)c(C(=O)O)[nH]c12` (mixture of isomers) [IC-99, 7-[1-[[4-(Aminomethyl)cyclohexanecarbonyl]amino]ethyl]-3-[3-fluoro-4-(methylsulfonylmethyl)phenyl]-1H-indole-2-carboxylic acid], the half-life at 1 μM in series [1] and in series [7] was greater than 6.67 h each time. In addition, the IC50 in [2] was greater than 10 nM; in [3], less than 0.1 nM; in series [4], 1 to 10 nM; in series [5] it was greater than 10 nM. The fraction unbound at 4 h, 10 μM in series [6] and in [8] was 0.05 to 0.25 in each case.
Take `C[C@H](OCc1ccc(CN)cc1)c1cccc2c(-c3ccc(CS(C)(=O)=O)c(Cl)c3)c(C(=O)O)[nH]c12` (single isomer, unassigned) [IC-87]: the half-life at 1 μM in series [1] is less than 2.5 h; in [7] it was greater than 6.67 h. In addition, the IC50 in series [2] is 1 to 10 nM; in series [3], 0.1 to 1 nM; in series [4], less than 0.1 nM; in [5] it was 1 to 10 nM. The fraction unbound at 4 h, 10 μM in [6] was 0.05 to 0.25; in [8], 0.005 to 0.05.
With `C[C@@H](OCc1ccc(CN)cc1)c1cccc2c(-c3ccc(CS(C)(=O)=O)c(Cl)c3)c(C(=O)O)[nH]c12` (single isomer, unassigned) [IC-88], the half-life at 1 μM in series [1] is less than 2.5 h; in [7] it was greater than 6.67 h. The IC50 is 1 to 10 nM in series [2], greater than 10 nM in [3], 0.1 to 1 nM in [4] and greater than 10 nM in series [5]. The fraction unbound at 4 h, 10 μM is less than 0.005 in series [6] and 0.005 to 0.05 in [8].
For the compound `C[C@@H](c1cccc2c(-c3c(F)cc(NS(C)(=O)=O)cc3F)c(C(=O)O)[nH]c12)n1cc(CN2CC(N)C2)oc1=O` [IC-51, 7-[(1S)-1-{5-[(3-Aminoazetidin-1-yl)methyl]-2-oxo-2,3-dihydro-1,3-oxazol-3-yl}ethyl]-3-(2,6-difluoro-4-methanesulfonamidophenyl)-1H-indole-2-carboxylic acid], the “MIC values AB NDM-1” value in series [9] was “C (C = MIC values > 8)”. For the same compound, the “MIC values EC NDM-1” value in [10] is “C (C = MIC values > 8)”. Also, the IC50 in series [2] was greater than 10 nM; in [3], 1 to 10 nM; in series [4], 1 to 10 nM; in series [5], greater than 10 nM. For the same compound, in series [11], the “MIC values EC NDM-7” value was “B (B MIC values 2 ÷ 8)”. Further, the results for the fraction unbound at 4 h, 10 μM in [6] and in [8] were 0.005 to 0.05 and 0.05 to 0.25, respectively.
On to `C[C@@H](c1cccc2c(-c3ccc(CS(C)(=O)=O)c(F)c3)c(C(=O)O)[nH]c12)n1cc(CN2CC(C)(N)C2)oc1=O` [IC-68, (S)-7-(1-(5-((3-amino-3-methylazetidin-1-yl)methyl)-2-oxooxazol-3(2H)-yl)ethyl)-3-(3-fluoro-4-((methylsulfonyl)methyl)phenyl)-1H-indole-2-carboxylic acid], for which the “MIC values AB NDM-1” value in series [9] is “B (B MIC values 2 ÷ 8)”. Moreover, the “MIC values EC NDM-1” value in series [10] is listed as “A (A = MIC values ≤ 1)”. Further, the half-life at 1 μM in [1] and in series [7] was greater than 6.67 h throughout. Also, the IC50 in [2] is greater than 10 nM; in [3] it was 0.1 to 1 nM; in series [4] it was less than 0.1 nM; in [5], 1 to 10 nM. In addition, the “MIC values EC NDM-7” value in series [11] is given as “A (A = MIC values ≤ 1)”.
For `CC(OCc1ccc(CN)cc1)c1cccc2c(-c3ccc(NS(C)(=O)=O)c(C#N)c3)c(C(=O)O)[nH]c12` (stereo not shown) [IC-86, 7-(1-((4-(Aminomethyl)benzyl)oxy)ethyl)-3-(3-cyano-4-(methylsulfonamido)phenyl)-1H-indole-2-carboxylic acid], the results for the half-life at 1 μM in series [1] and in series [7] were less than 2.5 h and greater than 6.67 h, respectively. Also, the IC50 is greater than 10 nM in [2], 1 to 10 nM in series [3], less than 0.1 nM in series [4] and greater than 10 nM in series [5]. The fraction unbound at 4 h, 10 μM in series [6] fell in the range of 0.05 to 0.25; in series [8], 0.005 to 0.05.
Consider `CC(OCC1CCNCC1)c1cccc2c(-c3ccc(CS(C)(=O)=O)c(F)c3)c(C(=O)O)[nH]c12` (stereo not shown) [IC-89, 3-(3-Fluoro-4-((methylsulfonyl)methyl)phenyl)-7-(1-(piperidin-4-ylmethoxy)ethyl)-1H-indole-2-carboxylic acid], for which the half-life at 1 μM in series [1] and in [7] was greater than 6.67 h in each case. Moreover, the IC50 in [2] is greater than 10 nM; in series [3], 1 to 10 nM; in [4] it was 0.1 to 1 nM; in series [5], 1 to 10 nM. Further, the fraction unbound at 4 h, 10 μM in [6] and in series [8] was 0.05 to 0.25 throughout.
Turning to `CC(Oc1ccc(CN)cc1)c1cccc2c(-c3ccc(CS(C)(=O)=O)c(F)c3)c(C(=O)O)[nH]c12` (stereo not shown) [IC-92, 7-(1-(4-(Ammoniomethyl)phenoxy)ethyl)-3-(3-fluoro-4-((methylsulfonyl)methyl)phenyl)-1H-indole-2-carboxylate], the half-life at 1 μM in series [1] is 2.5 to 6.67 h; in [7] it was greater than 6.67 h. Also, the IC50 in [2], in [3], in series [4] and in [5] was 1 to 10 nM each time. Also, the results for the fraction unbound at 4 h, 10 μM in series [6] and in series [8] were 0.005 to 0.05 and 0.05 to 0.25, respectively.
As to `CC(OC(=O)N1CCC(CN)CC1)c1cccc2c(-c3ccc(CS(C)(=O)=O)c(F)c3)c(C(=O)O)[nH]c12` (stereo not shown) [IC-95, 7-(1-((4-(Aminomethyl)piperidine-1-carbonyl)oxy)ethyl)-3-(3-fluoro-4-((methylsulfonyl)methyl)phenyl)-1H-indole-2-carboxylic acid], the half-life at 1 μM in series [1] and in series [7] was greater than 6.67 h each time. Further, the IC50 was greater than 10 nM in series [2], 1 to 10 nM in series [3], 0.1 to 1 nM in [4] and greater than 10 nM in series [5]. Further, the values for the fraction unbound at 4 h, 10 μM in series [6] and in series [8] were 0.005 to 0.05 and 0.05 to 0.25, respectively.
For `CC(c1cccc2c(-c3ccc(CS(C)(=O)=O)c(F)c3)c(C(=O)O)[nH]c12)N(C)C(=O)c1ccc(CN)cc1` (stereo not shown) [IC-97, 7-(1-(4-(Aminomethyl)-N-methylbenzamido)ethyl)-3-(3-fluoro-4-((methylsulfonyl)methyl)phenyl)-1H-indole-2-carboxylic acid], the half-life at 1 μM in series [1] is less than 2.5 h; in series [7], greater than 6.67 h. For the same compound, the IC50 in series [2] was greater than 10 nM; in [3], 1 to 10 nM; in series [4], 1 to 10 nM; in [5], greater than 10 nM. Moreover, the fraction unbound at 4 h, 10 μM in series [6] and in [8] was 0.05 to 0.25 throughout.
